The values below come from patent US20100099122A1 (priority 2008, published 2010).

Assay [1] concerns the target H. capsulatum Ggt1 (Histoplasma ohiense, UniProt A0ACF1AEB1). The class given is biochemical.
For assay [2], the system named is H. capsulatum Ggt1 (GSH-FeR). It counts as biochemical, Histoplasma capsulatum. The conditions noted are these: inhibitor 0.1 mM, 15 min pretreatment, then removed by diafiltration, GSH-FeR activity.
In assay [3] the test system is H. capsulatum Ggt1 (GSH-FeR). The conditions noted are these: cited from earlier work.

“Also recorded” adds a separate entry of the source. Where two headings read alike, the source gives them in different places.

For the compound `N[C@H](C(=O)O)[C@@H]1CC(Cl)=NO1` [Acivicin, acivicin], the “Glu transfer catalyzed by γ-Glutamyltransferase (Ggt1), effect of inhibitor” value (from here on “Glu transfer catalyzed … of inhibitor”) in assay [1] is on record as “completely abolished; also recorded: Inhibition”. The “Fe^3+ reduction catalyzed by γ-Glutamyltransferase (Ggt1), effect of inhibitor” value (“Fe^3+ reduction catalyzed … of inhibitor” below) in assay [2] is reported as “Inhibition”; in assay [2] (listed as acivicin), “completely abolished”.
For the compound `[Al]` [Aluminum, aluminum], in assay [1], the “Glu transfer catalyzed … of inhibitor” value is “no inhibitory action; also recorded: No effect”. In assay [2], the “Fe^3+ reduction catalyzed … of inhibitor” value was “strong inhibitory effect; also recorded: Inhibition”. Also, in assay [3], the “inhibition of GSH-FeR activity” value is reported as “reversibly inhibited”.
Consider `[N-]=[N+]=CC(=O)CC[C@H](N)C(=O)O` [DON, 6-diazo-5-oxo-L-norleucine], for which the “Glu transfer catalyzed … of inhibitor” value in assay [1] is “completely abolished; also recorded: Inhibition”. For the same compound, in assay [2], the “Fe^3+ reduction catalyzed … of inhibitor” value is recorded as “completely abolished; also recorded: Inhibition”.
For `N[C@@H](CCC(=O)Nc1ccc([N+](=O)[O-])cc1)C(=O)O` [GpNA, γ-glutamyl-p-nitroanilide], the Michaelis-Menten constant (Km) (in general, the concentration of substrate that gives half-maximal velocity) is roughly 840 µM in assay [1] (read-out: apparent optimal Km for GpNA, glutamyl transfer reaction) and roughly 750 µM in assay [1] (read-out: apparent optimal Km for GpNA, hydrolysis).
As for `N[C@@H](CS)C(=O)NCC(=O)O` [cysteinylglycine], the “ability to reduce iron compared to the activity of 1 mM GSH” value (1 mM) is “over 117 fold”. The “iron reduction activity (ferrous iron generated)” value (0.5-1 mM) is “generated measurable amounts of ferrous iron”. Further, the “iron reduction by cysteinylglycine alone” value (pH 5.5) is 2.85±0.08 μmol of Fe^2+ min^−1 (mmol CysGly)^−1.
As for `[Ga]` [gallium], in assay [1], the “Glu transfer catalyzed … of inhibitor” value was “no inhibitory action; also recorded: No effect”. Moreover, the “Fe^3+ reduction catalyzed … of inhibitor” value in assay [2] was “strong inhibitory effect; also recorded: Inhibition”. Further, the “inhibition of GSH-FeR activity” value in assay [3] is “reversibly inhibited”.
As to serine/borate complex [SBC], the “Glu transfer catalyzed … of inhibitor” value in assay [1] is “completely abolished; also recorded: Inhibition”. Besides, the “Fe^3+ reduction catalyzed … of inhibitor” value in assay [2] is given as “completely abolished; also recorded: Inhibition”.
